These results are taken from patent US20250367185A1, “TRANSLESION SYNTHESIS POLYMERASE INHIBITORS AND USES THEREOF” (THE UNIVERSITY OF VERMONT AND STATE AGRICULTURAL COLLEGE, priority 2022, published 2025).

In the assay the test system is HPRT (hypoxanthine phosphoribosyltransferase) gene in A549-ACE2+ cells infected with SARS-COV-2. Briefly: HPRT mutagenesis in SARS-COV-2 infected cells. Format: cell-based.

Take `CC(C)CC(=O)c1c(Nc2ccc(C(=O)O)cc2Cl)[nH]c2c(Cl)ccc([N+](=O)[O-])c2c1=O` [Compound 1, 3-chloro-4-((8-chloro-3-(3-methylbutanoyl)-5-nitro-4-oxo-1,4-dihydroquinolin-2-yl)amino)benzoic acid]: the “SARS-COV-2-dependent HPRT mutagenesis” value is on record as “suppress”.
